# Assay results published in patent publication US20250326815A1, “STAPLE-CONTAINING POLYPEPTIDES AND APPLICATION THEREOF” (Soter Biopharma Pte. Ltd., priority 2021, published 2025).
# Tests used:
# GLP-1R = target: T1, GLP-1R (Homo sapiens, UniProt P43220); experiment: In vitro agonistic activity on GLP-1R (cAMP assay); format: cell-based; conditions: HEK293 cell line; for Agonistic activity on GLP-1R Max Activity (%): Max Dose 20 nM
# T1 construct: host or cells: HEK293
# Description: (§1) The cell lines were constructed by Shanghai WuXi AppTec.
# (§2) The compounds to be assayed were serially diluted 4-fold with Bravo to obtain 10 concentrations, with a starting concentration of 30 μM.
# (§3) 1) 100 nL of the compound was transferred to an OptiPlate-384 plate using Echo.
# (§4) 2) The OptiPlate-384 plate was centrifuged at 1000 rpm for 5 seconds.
# (§5) 1) A GLP-1R/GIPR/GCGR cell cryopreservation tube was quickly placed in warm water at 37° C. to thaw.
# (§6) 2) The cell suspension was transferred to a 15 mL centrifuge tube, and gently washed with 10 ml of HBSS.
# (§7) 3) The centrifuge tube was centrifuged at 1000 rpm at room temperature for 1 minute.
# (§8) 4) The supernatant was discarded.
# (§9) 5) The cells at the bottom were gently dispersed and gently washed with 10 ml of HBSS. The cells were centrifuged and sedimented, and finally resuspended with the assay buffer.
# (§10) 6) Vi-cell was used to measure the cell density and viability.
# (§11) 7) The concentration of GLP-1R/GIPR/GCGR cells was diluted to 2.0*105/mL with the assay buffer.
# (§12) 8) […] of the diluted cell suspension was transferred to the OptiPlate-384 plate.
# (§13) 9) The plate was incubated at room temperature for 30 minutes.
# (§14) 1) 10 μL of 800 nM gradient diluted cAMP standard was added into an empty well of the OptiPlate-384 plate.
# (§15) 2) 10 μL of cAMP assay reagent was added.
# (§16) 3) The OptiPlate-384 plate was covered with a TopSeal-A film and incubated at room temperature for 60 minutes.
# (§17) The TopSeal-A was peeled off and the plate was read on the EnVision.
# GIPR = target: T2, GIPR (Homo sapiens, UniProt P48546); experiment: In vitro agonistic activity on GIPR (cAMP assay); format: cell-based; conditions: CHO cell line; for Agonistic activity on GIPR Max Activity (%): Max Dose 20 nM
# T2 construct: host or cells: CHO
# T2 sequence (P48546 22-466): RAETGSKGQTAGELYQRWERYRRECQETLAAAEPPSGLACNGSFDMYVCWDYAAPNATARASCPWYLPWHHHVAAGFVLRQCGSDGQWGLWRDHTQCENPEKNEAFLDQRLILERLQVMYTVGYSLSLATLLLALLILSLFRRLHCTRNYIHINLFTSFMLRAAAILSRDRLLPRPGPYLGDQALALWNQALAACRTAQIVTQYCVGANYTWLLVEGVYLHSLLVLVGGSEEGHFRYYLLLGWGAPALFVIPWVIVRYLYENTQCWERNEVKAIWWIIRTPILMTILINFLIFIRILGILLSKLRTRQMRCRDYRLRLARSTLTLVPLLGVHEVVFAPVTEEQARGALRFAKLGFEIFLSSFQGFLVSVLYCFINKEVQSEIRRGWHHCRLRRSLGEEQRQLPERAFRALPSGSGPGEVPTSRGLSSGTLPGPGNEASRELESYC
# Description: as §1, §2, §3, §4, §5, §6, §7, §8, §9, §10, §11, §12, §13, §14, §15, §16, §17
# human plasma albumin = experiment: Plasma protein binding (PPB), human; format: in vitro ADME; set-up: key: NA indicates that the plasma protein binding is too high, and no free drug is detected at a normal plasma protein concentration; conditions: ultracentrifugation
# Description: The binding degree of the assay compound to human/mouse plasma albumin was studied.
# 1. Matrix preparation: on the day of the assay, plasma was thawed in cold water and centrifuged at 3220 rpm for 5 min to remove all clots. The pH of the resulting plasma was measured and adjusted to 7.4±0.1 using 1% phosphoric acid or IN sodium hydroxide as needed.
# 2. Dilution procedure for the assay compound: the assay compound was dissolved in dimethyl sulfoxide (DMSO) to prepare stock solutions with concentrations of 10 mM and 2 mM, respectively. A 40 μM working solution was prepared by diluting 2 μL of stock solution (2 mM) with 98 μL of DMSO. A 400 μM working solution of the control compound was prepared by diluting 10 μL of stock solution with 240 μL of DMSO. The working solution of the compound (5 μL) was mixed well with a blank matrix (995 μL) at a ratio of 1:200 to prepare a loading matrix.
# 3.1 An equal volume of 30 μL of loading matrix (n=2) was transferred to a sample collection plate to prepare a time 0 (T0) sample for residue determination. […]
# 3.4 At the end of centrifugation, 30 μL of protein-free samples and 30 μL of T samples were transferred from the second layer of the supernatant (below the top layer) to a new sample collection plate. […] The mixture was centrifuged at 4000 rpm for 20 min and 100 μL of supernatant from each sample was analyzed by LC-MS/MS.
# [1] = Plasma stability assay (PLS), human; format: in vitro ADME; conditions: pH 7.4, 37° C., read-out: PLS (human) T1/2
# [2] = Pharmacokinetic evaluation in mice; format: in vivo; conditions: mouse, plasma, 0.048 mg/kg, C57BL/6 mice, single SC 0.048 mpk; for half-life: read-out: Half-life T1/2 (converted); for AUC(0-t): read-out: Integral of the SC concentration AUC0-72 h; for Cmax: read-out: Maximum plasma concentration
# Description: Pharmacokinetics of the compound in C57BL/6 mice were assayed.
# The pharmacokinetic characteristics of the compound in rodents after a subcutaneous injection were assayed using the standard protocol. In the assay, the candidate compound was formulated into a clear solution and given to mice by a single subcutaneous injection (SC, 0.048 mpk). The solvent of the subcutaneous injection was citrate buffer (20 mM, pH=7). Whole blood was collected, and plasma was prepared. Drug concentration was analyzed by LC-MS/MS method, and pharmacokinetic parameters were calculated using Phoenix WinNonlin software.
# T1 sequence (P43220 24-463, species assumed): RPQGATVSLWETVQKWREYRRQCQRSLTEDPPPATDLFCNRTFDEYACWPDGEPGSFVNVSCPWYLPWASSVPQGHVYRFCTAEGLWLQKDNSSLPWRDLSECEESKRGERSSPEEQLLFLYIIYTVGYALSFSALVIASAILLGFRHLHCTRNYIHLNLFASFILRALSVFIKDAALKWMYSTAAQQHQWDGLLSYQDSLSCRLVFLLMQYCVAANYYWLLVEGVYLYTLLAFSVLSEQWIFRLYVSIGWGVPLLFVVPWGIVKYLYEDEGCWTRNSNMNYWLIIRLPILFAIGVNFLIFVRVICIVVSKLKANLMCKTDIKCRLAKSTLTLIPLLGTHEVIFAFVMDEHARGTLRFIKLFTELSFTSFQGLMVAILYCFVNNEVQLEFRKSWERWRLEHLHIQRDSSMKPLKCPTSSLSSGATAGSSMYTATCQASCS
EC50 (GLP-1R) [pM],Agonistic activity on GLP-1R Max Activity (%) (GLP-1R),EC50 (GIPR) [pM],Agonistic activity on GIPR Max Activity (%) (GIPR),PPB % unbound (human) (human plasma albumin),half-life at 2 μM [1] [h],Tmax [2] [h],half-life [2] [h],AUC(0-t) [2] [µM·h],Cmax [2] [nM],SMILES
22.7,122.64,> 20000,2.26,NA/NA,> 4.82,8,21,1.81,46,CC(C)C[C@H](NC(=O)[C@H](CC(C)C)NC(=O)[C@H](Cc1c[nH]c2ccccc12)NC(=O)[C@H](CCC(=O)O)NC(=O)[C@@H](NC(=O)[C@H](Cc1ccccc1)NC(=O)[C@H](CCC(=O)O)NC(=O)[C@@H]1CCCCNC(=O)CN(C(=O)COCCOCCNC(=O)COCCOCCNC(=O)CC[C@H](NC(=O)CCCCCCCCCCCCCCCCCCC(=O)O)C(=O)O)CC(=O)NCCCC[C@H](NC(=O)[C@H](CCC(=O)O)NC(=O)[C@H](CC(=O)O)NC(=O)[C@H](CC(C)C)NC(=O)[C@H](Cc2ccc(O)cc2)NC(=O)[C@H](CCCCN)NC(=O)[C@H](CO)NC(=O)[C@H](Cc2ccc(O)cc2)NC(=O)[C@H](CC(=O)O)NC(=O)[C@H](CO)NC(=O)[C@@H](NC(=O)[C@H](Cc2ccccc2)NC(=O)[C@@H](NC(=O)CNC(=O)[C@H](CCC(N)=O)NC(=O)C(C)(C)NC(=O)[C@@H](N)Cc2c[nH]cn2)[C@@H](C)O)[C@@H](C)O)C(=O)N[C@@H](CCCCN)C(=O)N[C@@H](C)C(=O)N1)C(C)C)C(=O)N[C@@H](CCC(=O)O)C(=O)NCC(=O)NCC(=O)N1CCC[C@H]1C(=O)N[C@@H](CO)C(=O)N[C@@H](CO)C(=O)NCC(N)=O [WX001]
44.6,85.77,> 20000,4.12,NA/NA,–,12,22,1.16,36,CC(C)C[C@H](NC(=O)[C@H](CC(C)C)NC(=O)[C@H](Cc1c[nH]c2ccccc12)NC(=O)[C@@H]1CCCCNC(=O)CN(C(=O)COCCOCCNC(=O)COCCOCCNC(=O)CC[C@H](NC(=O)CCCCCCCCCCCCCCCCCCC(=O)O)C(=O)O)CC(=O)NCCCC[C@H](NC(=O)[C@H](C)NC(=O)[C@H](CCCCN)NC(=O)[C@H](CCCCN)NC(=O)[C@H](CCC(=O)O)NC(=O)[C@H](CC(=O)O)NC(=O)[C@H](CC(C)C)NC(=O)[C@H](Cc2ccc(O)cc2)NC(=O)[C@H](CCCCN)NC(=O)[C@H](CO)NC(=O)[C@H](Cc2ccc(O)cc2)NC(=O)[C@H](CC(=O)O)NC(=O)[C@H](CO)NC(=O)[C@@H](NC(=O)[C@H](Cc2ccccc2)NC(=O)[C@@H](NC(=O)CNC(=O)[C@H](CCC(N)=O)NC(=O)C(C)(C)NC(=O)[C@@H](N)Cc2c[nH]cn2)[C@@H](C)O)[C@@H](C)O)C(=O)N[C@@H](CCC(=O)O)C(=O)N[C@@H](Cc2ccccc2)C(=O)N[C@@H](C(C)C)C(=O)N1)C(=O)N[C@@H](CCC(=O)O)C(=O)NCC(=O)NCC(=O)N1CCC[C@H]1C(=O)N[C@@H](CO)C(=O)N[C@@H](CO)C(=O)NCC(N)=O [WX004]
